Experiment [1] relates to C. difficile clinical isolates. In words: MIC via agar dilution versus 110 clinical isolates of C. difficile. Type of experiment: cell-based. The following applies: 110 clinical isolates. (Agar dilution tests growth on a series of plates holding different concentrations.)
The next experiment has as its system C. difficile. Put plainly: Post-antibiotic effect (PAE) in C. difficile. The following applies: at 4× the MIC, clinical isolate LC3. The class given is cell-based. As to the method:
The term “PAE” or “post-antibiotic effect” refers to a well-established pharmacodynamic parameter that reflects the persistent suppression of bacterial growth following antibiotic exposure.
Vancomycin and rifampin were tested additionally versus LC3.
Because of the long duration of this effect, an exact PAE was not calculated.

`Cc1ncc([N+](=O)[O-])n1CCO` [Metronidazole, reference compound]: the “MIC range” value in experiment [1] was 0.025 to 0.5 mg/L.
As to `CN[C@H](CC(C)C)C(=O)N[C@H]1C(=O)N[C@@H](CC(N)=O)C(=O)N[C@H]2C(=O)N[C@H]3C(=O)N[C@H](C(=O)N[C@H](C(=O)O)c4cc(O)cc(O)c4-c4cc3ccc4O)[C@H](O)c3ccc(c(Cl)c3)Oc3cc2cc(c3O[C@@H]2O[C@H](CO)[C@@H](O)[C@H](O)[C@H]2O[C@H]2C[C@](C)(N)[C@H](O)[C@H](C)O2)Oc2ccc(cc2Cl)[C@H]1O` [Vancomycin, reference compound], the “MIC range” value in experiment [1] was 0.06 to 4 mg/L. Moreover, the PAE entry with C. difficile is “less than an hour”.
